Measured values from US9662323B2, “Compounds having muscarinic receptor antagonist and beta2 adrenergic receptor agonist activity” (CHIESI FARMACEUTICI S.p.A., priority 2015, dated 2017).

Assays:
Human M3 receptor = target: T1, Human M3 receptor (Homo sapiens, UniProt P20309); assay: M3 Receptor Radioligand Binding Assay; details: human M3 receptor membranes, [3H]-N-methyl scopolamine; read-out: M3 binding affinity (Ki class)
T1 construct: purchased Perkin Elmer
How it was run: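 Radioligand binding with 0.5% (v/v) final DMSO, incubated 2 h at room temperature with shaking. Membranes were collected on GF/C filters pre-treated with 0.5% polyethyleneimine, washed four times with assay buffer, and counted by scintillation.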

Human β2 adrenoceptor = target: T2, Human β2 adrenoceptor (Homo sapiens, UniProt P07550); assay: β2 Adrenoceptor Radioligand Binding Assay; details: human β2 adrenoceptor membranes, 125-I Cyanopindolol; read-out: B2 binding affinity (Ki class)
T2 construct: purchased Perkin Elmer
T2 sequence (P07550 whole entry): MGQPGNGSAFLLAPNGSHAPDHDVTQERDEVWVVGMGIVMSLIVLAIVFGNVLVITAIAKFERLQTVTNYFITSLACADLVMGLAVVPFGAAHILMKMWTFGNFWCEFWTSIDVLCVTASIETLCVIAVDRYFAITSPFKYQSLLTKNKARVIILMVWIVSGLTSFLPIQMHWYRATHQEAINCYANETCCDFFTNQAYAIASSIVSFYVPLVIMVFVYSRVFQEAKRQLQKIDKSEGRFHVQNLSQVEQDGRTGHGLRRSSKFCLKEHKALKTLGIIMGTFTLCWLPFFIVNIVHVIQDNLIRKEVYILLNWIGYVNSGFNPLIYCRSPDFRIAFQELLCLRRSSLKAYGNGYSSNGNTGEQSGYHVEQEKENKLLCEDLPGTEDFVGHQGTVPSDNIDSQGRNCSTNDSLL
How it was run: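 Membranes were incubated 1 h at room temperature in 25 mM HEPES, 0.5% BSA, 1 mM EDTA, 0.02% ascorbic acid, pH 7.4, with 0.5% DMSO final. Bound radioligand was collected by GF/C filtration and counted by scintillation. IC50 values from competition curves were converted to Ki by Cheng–Prusoff.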

T1 sequence (P20309 whole entry): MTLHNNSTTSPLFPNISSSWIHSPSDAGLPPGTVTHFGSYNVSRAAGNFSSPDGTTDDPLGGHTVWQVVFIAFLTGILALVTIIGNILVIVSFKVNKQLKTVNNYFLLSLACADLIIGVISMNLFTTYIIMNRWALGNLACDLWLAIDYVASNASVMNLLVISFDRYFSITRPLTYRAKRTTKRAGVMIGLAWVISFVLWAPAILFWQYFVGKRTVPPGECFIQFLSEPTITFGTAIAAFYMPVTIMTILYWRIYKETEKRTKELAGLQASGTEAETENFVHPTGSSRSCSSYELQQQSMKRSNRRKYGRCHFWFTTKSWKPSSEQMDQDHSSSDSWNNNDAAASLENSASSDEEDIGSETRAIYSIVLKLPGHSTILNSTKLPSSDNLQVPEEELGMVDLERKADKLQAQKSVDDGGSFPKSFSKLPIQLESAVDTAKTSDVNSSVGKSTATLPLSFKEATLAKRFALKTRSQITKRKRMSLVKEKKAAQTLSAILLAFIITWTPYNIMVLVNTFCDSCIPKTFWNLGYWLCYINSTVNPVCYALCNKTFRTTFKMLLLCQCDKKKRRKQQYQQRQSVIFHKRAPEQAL

| Structure (SMILES) | Ki (Human M3 receptor) | Ki (Human β2 adrenoceptor) |
| --- | --- | --- |
| O=C(NCCCCNC[C@H](O)c1ccc(O)c2[nH]c(=O)ccc12)c1ccc(C(=O)N2CCC(C(=O)O[C@H]3CN4CCC3CC4)(c3ccccc3)CC2)cc1 [Compound 19, (R)-Quinuclidin-3-yl 1-(4-((4-(((R)-2-hydroxy-2-(8-hydroxy-2-oxo-1,2-dihydroquinolin-5-yl)ethyl)amino)butyl)carbamoyl)benzoyl)-4-phenylpiperidine-4-carboxylate] | 1 to 10 nM | < 1 nM |
| O=C(NCCCNC[C@H](O)c1ccc(O)c2[nH]c(=O)ccc12)c1ccc(COc2ccc(C(=O)N3CC(C(=O)O[C@H]4CN5CCC4CC5)(c4ccccc4)C3)cc2)cc1 [Compound 19A, (R)-Quinuclidin-3-yl 1-(4-((4-((3-(((R)-2-hydroxy-2-(8-hydroxy-2-oxo-1,2-dihydroquinolin-5-yl)ethyl)amino)propyl)carbamoyl)benzyl)oxy)benzoyl)-3-phenylazetidine-3-carboxylate] | < 1 nM | < 1 nM |
| O=C(c1ccc(CCNC[C@H](O)c2ccc(O)c3[nH]c(=O)ccc23)cc1)N1CCC(C(=O)O[C@H]2CN3CCC2CC3)(c2ccccc2)CC1 [Compound 20, (R)-Quinuclidin-3-yl 1-(4-(2-(((R)-2-hydroxy-2-(8-hydroxy-2-oxo-1,2-dihydroquinolin-5-yl)ethyl)amino)ethyl)benzoyl)-4-phenylpiperidine-4-carboxylate] | > 10 nM | < 1 nM |
| COc1cc(CNC(=O)c2ccc(C(=O)N3CC(C(=O)O[C@H]4CN5CCC4CC5)(c4ccccc4)C3)cc2)ccc1CNC[C@H](O)c1ccc(O)c2[nH]c(=O)ccc12 [Compound 20A, (R)-Quinuclidin-3-yl 1-(4-((4-((((R)-2-hydroxy-2-(8-hydroxy-2-oxo-1,2-dihydroquinolin-5-yl)ethyl)amino)methyl)-3-methoxybenzyl)carbamoyl)benzoyl)-3-phenylazetidine-3-carboxylate] | < 1 nM | < 1 nM |
| O=C(NCCCCNC[C@H](O)c1ccc(O)c2[nH]c(=O)ccc12)c1ccc(C(=O)N2CCC(C(=O)O[C@H]3CN4CCC3CC4)(c3ccccc3)CC2)s1 [Compound 21, (R)-Quinuclidin-3-yl 1-(5-((4-(((R)-2-hydroxy-2-(8-hydroxy-2-oxo-1,2-dihydroquinolin-5-yl)ethyl)amino)butyl)carbamoyl)thiophene-2-carbonyl)-4-phenylpiperidine-4-carboxylate] | 1 to 10 nM | < 1 nM |
| O=C(c1ccc(OCc2cccc(OCCCCNC[C@H](O)c3ccc(O)c4[nH]c(=O)ccc34)c2)cc1)N1CCC(C(=O)O[C@H]2CN3CCC2CC3)(c2ccccc2)CC1 [Compound 22, (R)-Quinuclidin-3-yl 1-(4-((3-(4-(((R)-2-hydroxy-2-(8-hydroxy-2-oxo-1,2-dihydroquinolin-5-yl)ethyl)amino)butoxy)benzyl)oxy)benzoyl)-4-phenylpiperidine-4-carboxylate] | 1 to 10 nM | < 1 nM |
| O=C(NCc1ccc(CNC[C@H](O)c2ccc(O)c3[nH]c(=O)ccc23)cc1)c1ccc(C(=O)N2CCC(C(=O)O[C@H]3CN4CCC3CC4)(c3ccccc3)CC2)cc1 [Compound 23, (R)-Quinuclidin-3-yl 1-(4-((4-((((R)-2-hydroxy-2-(8-hydroxy-2-oxo-1,2-dihydroquinolin-5-yl)ethyl)amino)methyl)benzyl)carbamoyl)benzoyl)-4-phenylpiperidine-4-carboxylate] | < 1 nM | 1 to 10 nM |
| O=C(c1ccc(OCc2ccc(CNC[C@H](O)c3ccc(O)c4[nH]c(=O)ccc34)cc2)cc1)N1CCC(C(=O)O[C@H]2CN3CCC2CC3)(c2ccccc2)CC1 [Compound 24, (R)-Quinuclidin-3-yl 1-(4-((4-((((R)-2-hydroxy-2-(8-hydroxy-2-oxo-1,2-dihydroquinolin-5-yl)ethyl)amino)methyl)benzyl)oxy)benzoyl)-4-phenylpiperidine-4-carboxylate] | < 1 nM | < 1 nM |
| CCN(CCCNC[C@H](O)c1ccc(O)c2[nH]c(=O)ccc12)C(=O)c1ccc(C(=O)N2CCC(C(=O)O[C@H]3CN4CCC3CC4)(c3ccccc3)CC2)cc1 [Compound 25, (R)-Quinuclidin-3-yl 1-(4-(ethyl(3-(((R)-2-hydroxy-2-(8-hydroxy-2-oxo-1,2-dihydroquinolin-5-yl)ethyl)amino)propyl)carbamoyl)benzoyl)-4-phenylpiperidine-4-carboxylate] | 1 to 10 nM | 1 to 10 nM |
| O=C(c1ccc(OCc2ccc(CCNC[C@H](O)c3ccc(O)c4[nH]c(=O)ccc34)cc2)cc1)N1CCC(C(=O)O[C@H]2CN3CCC2CC3)(c2ccccc2)CC1 [Compound 26, (R)-Quinuclidin-3-yl 1-(4-((4-(2-(((R)-2-hydroxy-2-(8-hydroxy-2-oxo-1,2-dihydroquinolin-5-yl)ethyl)amino)ethyl)benzyl)oxy)benzoyl)-4-phenylpiperidine-4-carboxylate] | < 1 nM | < 1 nM |
| CN(CCCNC[C@H](O)c1ccc(O)c2[nH]c(=O)ccc12)C(=O)c1ccc(C(=O)N2CCC(C(=O)O[C@H]3CN4CCC3CC4)(c3ccccc3)CC2)s1 [Compound 27, (R)-Quinuclidin-3-yl 1-(5-((3-(((R)-2-hydroxy-2-(8-hydroxy-2-oxo-1,2-dihydroquinolin-5-yl)ethyl)amino)propyl)(methyl)carbamoyl)thiophene-2-carbonyl)-4-phenylpiperidine-4-carboxylate] | 1 to 10 nM | < 1 nM |
| O=C(c1ccc(C(=O)N(CCCNC[C@H](O)c2ccc(O)c3[nH]c(=O)ccc23)Cc2ccccc2)s1)N1CCC(C(=O)O[C@H]2CN3CCC2CC3)(c2ccccc2)CC1 [Compound 28, (R)-Quinuclidin-3-yl 1-(5-(benzyl(3-(((R)-2-hydroxy-2-(8-hydroxy-2-oxo-1,2-dihydroquinolin-5-yl)ethyl)amino)propyl)carbamoyl)thiophene-2-carbonyl)-4-phenylpiperidine-4-carboxylate] | 1 to 10 nM | < 1 nM |
| CCN(CCCNC[C@H](O)c1ccc(O)c2[nH]c(=O)ccc12)C(=O)c1ccc(C(=O)N2CCC(C(=O)O[C@H]3CN4CCC3CC4)(c3ccccc3)CC2)s1 [Compound 29, (R)-Quinuclidin-3-yl 1-(5-(ethyl(3-(((R)-2-hydroxy-2-(8-hydroxy-2-oxo-1,2-dihydroquinolin-5-yl)ethyl)amino)propyl)carbamoyl)thiophene-2-carbonyl)-4-phenylpiperidine-4-carboxylate] | 1 to 10 nM | < 1 nM |
| O=C(Cc1ccc(OCCCCNC[C@H](O)c2ccc(O)c3[nH]c(=O)ccc23)cc1)N1CCC(C(=O)O[C@H]2CN3CCC2CC3)(c2ccccc2)CC1 [Compound 30, (R)-Quinuclidin-3-yl 1-(2-(4-(4-(((R)-2-hydroxy-2-(8-hydroxy-2-oxo-1,2-dihydroquinolin-5-yl)ethyl)amino)butoxy)phenyl)acetyl)-4-phenylpiperidine-4-carboxylate] | 1 to 10 nM | < 1 nM |
| O=C(NCCC(=O)N1CCC(C(=O)O[C@H]2CN3CCC2CC3)(c2ccccc2)CC1)c1ccc(CNC[C@H](O)c2ccc(O)c3[nH]c(=O)ccc23)cc1 [Compound 31, (R)-Quinuclidin-3-yl 1-(3-(4-((((R)-2-hydroxy-2-(8-hydroxy-2-oxo-1,2-dihydroquinolin-5-yl)ethyl)amino)methyl)benzamido)propanoyl)-4-phenylpiperidine-4-carboxylate] | 1 to 10 nM | < 1 nM |
